According to patent US10357539B2, “Use of peptides that block metadherin-SND1 interaction as treatment for cancer” (THE TRUSTEES OF PRINCETON UNIVERSITY, priority 2014, dated 2019):

T1: MTDH (Mus musculus, UniProt Q80WJ7)
T1 construct: endogenous in cells; host or cells: SND1-KD PyMT;Mtdh+/+ mouse mammary tumor cells
T1 sequence (Q80WJ7 1-579): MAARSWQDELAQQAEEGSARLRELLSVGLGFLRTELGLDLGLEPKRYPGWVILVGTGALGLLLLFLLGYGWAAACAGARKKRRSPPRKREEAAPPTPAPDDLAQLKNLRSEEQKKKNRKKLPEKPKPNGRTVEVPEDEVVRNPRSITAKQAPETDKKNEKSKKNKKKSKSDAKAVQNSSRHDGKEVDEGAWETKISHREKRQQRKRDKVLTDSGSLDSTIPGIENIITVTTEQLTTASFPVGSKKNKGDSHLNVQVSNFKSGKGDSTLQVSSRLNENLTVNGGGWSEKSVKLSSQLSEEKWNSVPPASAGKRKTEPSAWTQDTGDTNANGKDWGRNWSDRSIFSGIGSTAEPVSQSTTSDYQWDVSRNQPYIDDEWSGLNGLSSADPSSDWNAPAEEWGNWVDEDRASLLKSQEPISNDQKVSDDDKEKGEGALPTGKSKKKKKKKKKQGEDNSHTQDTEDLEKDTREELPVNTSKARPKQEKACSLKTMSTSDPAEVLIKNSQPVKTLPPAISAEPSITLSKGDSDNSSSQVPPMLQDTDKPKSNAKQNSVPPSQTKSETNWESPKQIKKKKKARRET

B1: murine SND1 R255E: shRNA-resistant murine SND1 mutant R255E (protein, UniProt Q78PY7 2-910, looked up, variant R255E)
Staphylococcal nuclease …: ASSAQSSGSSGGPAVPTVQRGIVKMVLSGCAIIVRGQPRGGPPPERQINLSNIRAGNLARRAAATQPDGKDTPDEPWAFPAREFLRKKLIGKEVCFTIENKTPQGREYGMIYLGKDTNGENIAESLVAEGLATRREGMRANNPEQNRLSECEEQAKASKKGMWSEGNGSHTIRDLKYTIENPRHFVDSHHQKPVNAIIEHVRDGSVVRALLLPGHHLVTVMLSGIKCPTFRRETDGSETPEPFAAEAKFFTESELLQRDVQIILESCHNQNLLGTILHPNGNITELLLKEGFARCVDWSIAVYTRGAEKLRAAERFAKERRLRIWRDYVPPTANLDQKDKQFVAKVMQVLNADAIVVKLNSGDYKTIHLSSIRPPRLEGDNIQDKNKKLRPLYDIPYMFEAREFLRKKLIGKKVNVTVDYIRPASPATETVPAFSERTCATVTIGGINIAEALVSKGLATVIRYRQDDDQRSSHYDELLAAEARAIKNGKGLHSKKEVPIHRVADISGDTQKAKQFLPFLQRAGRSEAVVEYVFSGSRLKLYLPKETCLITFLLAGIECPRGARNLPGLVQEGEPFSEEATLFTKELVLQREVEVEVESMDKAGNFIGWLHMDGANLSVLLVEQALSKVHFTAERSAYYKPLLSAEEAAKQRKEKVWAHYEERPVEEVMPVLEEKERSASYKPVFVTEITDDLHFYVQDVETGTQLEKLMENMRNDISSHPPVEGSYAPRRGEFCIAKFVDGEWYRARVEKVESPAKVHVFYIDYGNREILPSTRLGTLPPAFSTRVLPAQATEYAFAFIQVPQDEDARTDAVDSVVRDIQNTQCLLNVEHLSASCPHVTLQFADSKGDVGLGLVKEGLVMVEVRKEKQFQKVITEYLNAQESAKSARLNLWRYGDFRADDADEFGYSR
modifications: shRNA-resistant

Columns and labels:
SND1 = SND1 protein levels in MECs treated with CPT (western blot); type: cell-based, mouse; conditions: PyMT;Mtdh+/+ pMECs, CPT at indicated concentrations for 36 hours
Experimental: (§1) FIGS. 9A-I illustrates that MTDH confers survival advantage by interacting with and stabilizing pro-survival protein SND1 under stress. (FIG. 9A) Quantification of cleaved caspase 3-positive MECs from normal or MMTV-PyMT preneoplastic glands (n>3) of WT (left column) or KO females (right column). (FIG. 9B) The effect of CPT on the apoptosis of PyMT;Mtdh−/− pMECs reconstituted with indicated Mtdh constructs (left column: VEC; middle column: WT; right column: W391D) was determined by PI and Hoechst staining. (FIG. 9C) The effect of CPT on the apoptosis of control (left column) or SND1-KD (right column) PyMT;Mtdh+/+ pMECs. (FIG. 9D) Protein levels of SND1 and β-actin (loading control) in control or MTDH-KD PyMT;Mtdh+/+ pMECs treated with CPT at indicated concentrations for 36 hours. Degradation curve (right) represents the average of 3 independent experiments. (FIG. 9E) Western blotting of SND1, MTDH and β-actin (loading control) in PyMT;Mtdh−/− MECs reconstituted with indicated constructs after CPT treatment for 48 hours. Degradation curves (right) represent average of 3 independent experiments. […] Z scores were calculated based on gene expression changes and gene functions as specified by the ingenuity knowledge base. […]

PyMT;Mtdh−/− pMECs = test: CPT-induced apoptosis of MECs (PI and Hoechst staining); type: cell-based, mouse; conditions: CPT to induce DNA replication stress
Experimental: as §1

MTDH = molecular target: T1, MTDH; test: Anti-MTDH immunoprecipitation from SND1-KD PyMT;Mtdh+/+ tumor cells reconstituted with murine SND1; type: cell-based; conditions: shRNA-resistant construct in SND1-KD PyMT;Mtdh+/+ tumor cells
Experimental: (FIG. 24A) Lysates from SND1-KD PyMT;Mtdh+/+ tumor cells reconstituted with vector control, WT or mutant shRNA-resistant murine SND1 were immunoprecipitated with anti-MTDH antibody and immunoblotted for indicated proteins. (FIG. 24B) Mammosphere assays were performed with SND1-KD PyMT;Mtdh+/+ tumor cells reconstituted with vector control or indicated SND1 constructs. (FIG. 24C, FIG. 24D) Mammary tumor incidence (FIG. 24C) and tumor growth curve (FIG. 24D) after orthotopic transplantations of SND1-KD PyMT;Mtdh+/+ tumor cells reconstituted with indicated constructs. Statistics: (FIG. 24B, FIG. 24D) Student's t-test. Data represent mean±SEM. (FIG. 24C) Chi-square test. […], *p<0.01, *p<0.05.
Immunoprecipitation and western blot: For in vivo immunoprecipitation (IP) experiments, cultured cells were washed in cold PBS and lysed in lysis buffer (20 mM Tris pH 7.4, 0.15 M NaCl, 1 mM EDTA, 1 mM EGTA, 1% Tx-100, 0.0025 M Na2P2O7, 1 mM β-glycerolphosphate, 1 mM Na3VO4, and 1 mM NaF) with an EDTA-free protease inhibitor mixture (Roche Applied Science) and PMSF. Cell lysates were then incubated on ice for 10 min, centrifuged, and precleared by incubating with protein A/G beads (Santa Cruz Biotechnology) for 1 h at 4° C. For IP bead preparation, 30 μl of protein A/G beads were incubated with 5 μg of antibodies for 2 h at 4° C. […]

Molecule	SND1 protein levels (SND1)	apoptosis of MECs (PyMT;Mtdh−/− pMECs)	interaction of murine SND1 mutants with MTDH (MTDH)
CC[C@@]1(O)C(=O)OCc2c1cc1n(c2=O)Cc2cc3ccccc3nc2-1 [CPT, camptothecin]	drug dosage-dependent decrease of SND1 protein levels	induced apoptosis of MECs in a dosage-dependent manner	–
B1	–	–	nearly completely abolished the interaction with MTDH
